For data set [1], the system named is NCI-H460. Description: Cytotoxicity against human NCI-H460 cells after 72 hrs by MTS method. The format is functional, cell-based. As to conditions: NCI-H460, 72 h.
Data set [2] relates to HL-60. The data set can be described thus: Cytotoxicity against human HL60 cells after 72 hrs by MTS method. The format is functional, cell-based. As to conditions: HL-60, 72 h. A general note: Tetrazolium assays rely on reduction of a dye to a coloured formazan, in cell work by metabolically active cells.
Data set [3] in a line: Dissociation constant, pKa of the compound. The format is physicochemical.

In the case of `CNC(=N)N(C)CCNc1c2ccccc2nc2ccccc12`, the IC50 (usually the concentration needed to halve the response being measured) stood at 10.3 µM in data set [1] and 79.7 µM in data set [2]. For the same compound, the pKa (usually the pH at which an ionisable group is half protonated) in data set [3] was 9.
For the compound `CNC(=N)N(C)CCNC(=O)c1cccc2cc3ccccc3nc12`, the values for the IC50 in data set [1] and in data set [2] were over 100 µM and 8.4 µM, respectively.
For the compound `CNC(=S)N(C)CCNC(=O)c1cccc2cc3ccccc3nc12`, the IC50 is 30.9 µM in data set [1] and over 100 µM in data set [2].
For the compound `CNC(=S)N(C)CCNc1c2ccccc2nc2ccccc12` [ACRAMTU], the pKa in data set [3] was 9.

(Values after ChEMBL document CHEMBL1157432, “Effect of linkage geometry on biological activity in thiourea- and guanidine-substituted acridines and platinum-acridines” (Bioorg Med Chem Lett, 2008).)
